From ChEMBL document CHEMBL1158410, “Synthesis and evaluation of 1-(quinoliloxypropyl)-4-aryl piperazines for atypical antipsychotic effect” (Bioorg Med Chem Lett, 2009)
Each block holds one compound with its values, some of them ahead of it. Activity calls are given as the source filed them. The rule behind the calls is not given here.

Legend:
[1] = Lipophilicity, log P of the compound; format: physicochemical; settings: octanol/water
Mus musculus [2] = assay: Antipsychotic activity in albino lyka mouse assessed as reversal of apomorphine-induced stereotype response at 120 mg/kg, ip administered 10 mins prior to apomorphine challenge measured after 10 to 30 mins; format: functional, organism-based; set-up: dose 120 mg/kg
Mus musculus [3] = assay: Antipsychotic activity in albino lyka mouse assessed as reduction in apomorphine-induced mesh climbing response at 120 mg/kg, ip administered 10 mins prior to apomorphine challenge measured after 10 to 30 mins; format: functional, organism-based; set-up: dose 120 mg/kg
Mus musculus [4] = assay: Antipsychotic activity in albino lyka mouse assessed as reduction in apomorphine-induced mesh climbing response at 20 mg/kg, ip administered 10 mins prior to apomorphine challenge measured after 10 to 30 mins; format: functional, organism-based; set-up: dose 20 mg/kg
Mus musculus [5] = assay: Antipsychotic activity in albino lyka mouse assessed as reversal of apomorphine-induced stereotype response at 20 mg/kg, ip administered 10 mins prior to apomorphine challenge measured after 10 to 30 mins; format: functional, organism-based; set-up: dose 20 mg/kg
Mus musculus [6] = assay: Antipsychotic activity in albino lyka mouse assessed as reversal of apomorphine-induced stereotype response at 1 mg/kg, ip administered 10 mins prior to apomorphine challenge measured after 10 to 30 mins; format: functional, organism-based; set-up: dose 1 mg/kg
Mus musculus [7] = assay: Antipsychotic activity in albino lyka mouse assessed as reduction in apomorphine-induced mesh climbing response at 1 mg/kg, ip administered 10 mins prior to apomorphine challenge measured after 10 to 30 mins; format: functional, organism-based; set-up: dose 1 mg/kg
Mus musculus [8] = assay: Antipsychotic activity in albino lyka mouse assessed as reversal of apomorphine-induced stereotype response at 25 mg/kg, ip administered 10 mins prior to apomorphine challenge measured after 10 to 30 mins; format: functional, organism-based; set-up: dose 25 mg/kg
Mus musculus [9] = assay: Antipsychotic activity in albino lyka mouse assessed as reduction in apomorphine-induced mesh climbing response at 25 mg/kg, ip administered 10 mins prior to apomorphine challenge measured after 10 to 30 mins; format: functional, organism-based; set-up: dose 25 mg/kg
Mus musculus [10] = assay: Antipsychotic activity in albino lyka mouse assessed as reversal of apomorphine-induced stereotype response at 5 mg/kg, ip administered 10 mins prior to apomorphine challenge measured after 10 to 30 mins; format: functional, organism-based; set-up: dose 5 mg/kg
Mus musculus [11] = assay: Antipsychotic activity in albino lyka mouse assessed as reduction in apomorphine-induced mesh climbing response at 5 mg/kg, ip administered 10 mins prior to apomorphine challenge measured after 10 to 30 mins; format: functional, organism-based; set-up: dose 5 mg/kg
Mus musculus [12] = assay: Antipsychotic activity in albino lyka mouse assessed as reversal of apomorphine-induced stereotype response at 80 mg/kg, ip administered 10 mins prior to apomorphine challenge measured after 10 to 30 mins; format: functional, organism-based; set-up: dose 80 mg/kg
Mus musculus [13] = assay: Antipsychotic activity in albino lyka mouse assessed as reduction in apomorphine-induced mesh climbing response at 80 mg/kg, ip administered 10 mins prior to apomorphine challenge measured after 10 to 30 mins; format: functional, organism-based; set-up: dose 80 mg/kg

SMILES: CN1CCN(C2=Nc3cc(Cl)ccc3Nc3ccccc32)CC1 [CLOZAPINE]
- logP [1]: 3.71

SMILES: c1ccc(CN2CCN(CCCOc3ccc4ncccc4c3)CC2)cc1
- logP [1]: 3.58
- Activity (Mus musculus [8]): inactive
- Activity (Mus musculus [9]): inactive

SMILES: O=C(c1ccccc1)N1CCN(CCCOc2ccc3ncccc3c2)CC1
- logP [1]: 3.02
- Activity (Mus musculus [8]): Active
- Activity (Mus musculus [9]): inactive

SMILES: Cc1nc2n(c(=O)c1CCN1CCC(c3noc4cc(F)ccc34)CC1)CCCC2 [RISPERIDONE]
- logP [1]: 2.1

SMILES: O=C(c1ccc(Cl)cc1)N1CCN(CCCOc2cccc3cccnc23)CC1
- logP [1]: 3.58
- Activity (Mus musculus [10]): Active
- Activity (Mus musculus [11]): inactive

SMILES: Clc1ccc(CN2CCN(CCCOc3ccc4ncccc4c3)CC2)cc1
- logP [1]: 4.14
- Activity (Mus musculus [10]): inactive
- Activity (Mus musculus [11]): inactive

SMILES: O=C(c1ccc(F)cc1)C1CCN(CCn2c(=O)[nH]c3ccccc3c2=O)CC1 [KETANSERIN]
- logP [1]: 2.37

Continued, in another order:

- logP [1]: 3.58
SMILES: c1ccc(CN2CCN(CCCOc3cccc4cccnc34)CC2)cc1
- Activity (Mus musculus [2]): inactive
- Activity (Mus musculus [3]): Active

- logP [1]: 4.67
SMILES: O=C1Cc2cc(CCN3CCN(c4nsc5ccccc45)CC3)c(Cl)cc2N1 [ZIPRASIDONE]

- logP [1]: 3.02
SMILES: O=C(c1ccccc1)N1CCN(CCCOc2cccc3cccnc23)CC1
- Activity (Mus musculus [4]): inactive
- Activity (Mus musculus [5]): Active

- logP [1]: 3.58
SMILES: O=C(c1ccc(Cl)cc1)N1CCN(CCCOc2ccc3ncccc3c2)CC1
- Activity (Mus musculus [6]): Active
- Activity (Mus musculus [7]): inactive

- logP [1]: 4.14
SMILES: Clc1ccc(CN2CCN(CCCOc3cccc4cccnc34)CC2)cc1
- Activity (Mus musculus [12]): inactive
- Activity (Mus musculus [13]): Active
